Experiments:
HOP-62 = assay: NCI-60 five-dose SRB assay; format: cell-based; conditions: Homo sapiens; HOP-62, non-small cell lung cancer
MOLT-4 = tested on: MOLT-4; set-up: method as in earlier work; conditions: imatinib mesylate NSC 743414, NCI data; cited from earlier work
SNB-75 = tested on: SNB-75; set-up: method as in earlier work; conditions: imatinib mesylate NSC 743414, NCI data; cited from earlier work
NCI-H226 = tested on: NCI-H226; set-up: method as in earlier work; conditions: imatinib mesylate NSC 743414, NCI data; cited from earlier work
786-0 = tested on: 786-0; set-up: method as in earlier work; conditions: imatinib mesylate NSC 743414, NCI data; cited from earlier work
HS 578T = tested on: HS 578T; set-up: method as in earlier work; conditions: imatinib mesylate NSC 743414, NCI data; cited from earlier work
HCT-15 = tested on: HCT-15; set-up: method as in earlier work; conditions: imatinib mesylate NSC 743414, NCI data; cited from earlier work
T-47D = tested on: T-47D; set-up: method as in earlier work; conditions: imatinib mesylate NSC 743414, NCI data; cited from earlier work
OVCAR-3 = tested on: OVCAR-3; set-up: method as in earlier work; conditions: imatinib mesylate NSC 743414, NCI data; cited from earlier work
BT-549 = tested on: BT-549; set-up: method as in earlier work; conditions: imatinib mesylate NSC 743414, NCI data; cited from earlier work
SF-539 = tested on: SF-539; set-up: method as in earlier work; conditions: imatinib mesylate NSC 743414, NCI data; cited from earlier work
HT29 = tested on: HT29; set-up: method as in earlier work; conditions: imatinib mesylate NSC 743414, NCI data; cited from earlier work
MALME-3M = tested on: MALME-3M; set-up: method as in earlier work; conditions: imatinib mesylate NSC 743414, NCI data; cited from earlier work

SMILES | GI50 (HOP-62) | GI50 (MOLT-4) | GI50 (SNB-75) | GI50 (NCI-H226) | GI50 (786-0) | GI50 (HS 578T) | GI50 (HCT-15) | GI50 (T-47D) | GI50 (OVCAR-3) | GI50 (BT-549) | GI50 (SF-539) | GI50 (HT29) | GI50 (MALME-3M)
COc1ccccc1-c1ccc2nc(NC(=O)Nc3cc(C(F)(F)F)cc(C(F)(F)F)c3)sc2c1 [Compound 2e] | 2.1 µM | – | – | – | – | – | – | – | – | – | – | – | –
Cc1ccc(NC(=O)c2ccc(CN3CCN(C)CC3)cc2)cc1Nc1nccc(-c2cccnc2)n1 [Imatinib] | – | 5.13 µM | 20.3 µM | 18.1 µM | 16 µM | 14.6 µM | 19.9 µM | 19.9 µM | 34.2 µM | 16.1 µM | 10.6 µM | 3.97 µM | 16.3 µM

Source: PMC10026764, “Overcoming the imatinib-resistant BCR-ABL mutants with new ureidobenzothiazole chemotypes endowed with potent and broad-spectrum anticancer activity” (Journal of Enzyme Inhibition and Medicinal Chemistry, 2023)
